Data reported in patent publication US6583180B2, “Glucocorticoid receptor modulators” (Abbott Laboratories, priority 2001, dated 2003).

Target: T1, Human glucocorticoid receptors (Homo sapiens, UniProt P04150)
T1 construct: made in house; host or cells: Sf9 insect cells, recombinant baculovirus (BAC-TO-BAC)
T1 sequence (P04150 1-777): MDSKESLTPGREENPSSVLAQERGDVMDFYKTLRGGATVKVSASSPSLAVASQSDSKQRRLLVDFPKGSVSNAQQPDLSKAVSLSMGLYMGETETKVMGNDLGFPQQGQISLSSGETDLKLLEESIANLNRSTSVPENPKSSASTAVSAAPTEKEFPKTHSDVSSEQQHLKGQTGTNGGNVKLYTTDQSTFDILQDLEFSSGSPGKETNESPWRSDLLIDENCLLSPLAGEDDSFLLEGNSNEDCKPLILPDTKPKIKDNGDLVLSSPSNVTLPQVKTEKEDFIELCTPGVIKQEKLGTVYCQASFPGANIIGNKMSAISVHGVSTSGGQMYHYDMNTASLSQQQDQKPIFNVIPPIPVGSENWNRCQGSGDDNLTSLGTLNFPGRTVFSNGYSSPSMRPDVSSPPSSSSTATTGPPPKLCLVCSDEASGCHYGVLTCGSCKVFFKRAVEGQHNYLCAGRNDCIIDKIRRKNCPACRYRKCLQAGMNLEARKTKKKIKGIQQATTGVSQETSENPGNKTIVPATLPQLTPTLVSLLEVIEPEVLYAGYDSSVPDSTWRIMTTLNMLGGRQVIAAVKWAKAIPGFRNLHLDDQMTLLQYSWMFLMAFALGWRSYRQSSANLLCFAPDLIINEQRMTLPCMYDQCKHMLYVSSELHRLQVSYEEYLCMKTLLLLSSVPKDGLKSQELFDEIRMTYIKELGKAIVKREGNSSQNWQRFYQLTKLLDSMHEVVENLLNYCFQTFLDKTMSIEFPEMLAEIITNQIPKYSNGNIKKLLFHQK
Assay: Radioligand filter binding assay, displacement of 3[H]-dexamethasone from hGR
Conditions: read-out: GR Binding (% Inhibition at 1.7 μM)
Summary of the method: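 Recombinant hGR extract from baculovirus-infected Sf9 cells (final ~1 nM receptor) incubated with ³H-dexamethasone and test compound dilutions in duplicate, EDTA/phosphate pH 8 buffer with MTG, overnight (15-20 h) at +4° C. Bound label collected on PEI-treated GF/B filters and scintillation-counted; IC50 from four-parameter fit of corrected cpm.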

Row | Structure (SMILES) | inhibition at 1.7 µM
1 | Cc1c(NS(C)(=O)=O)cccc1N(Cc1ccccc1)Cc1ccc(Oc2ccc(OCCCCC(=O)NCCC(=O)O)cc2)cc1 [Example 262, N-[5-(4-{4-[(benzyl{2-methyl-3-[(methylsulfonyl)amino]phenyl}amino)methyl]phenoxy}phenoxy)pentanoyl]-beta-alanine] | 92.2%
2 | Cc1c(NS(C)(=O)=O)cccc1N(Cc1ccccc1)Cc1ccc(Oc2ccc(OCCCCC(=O)NCCCC(=O)O)cc2)cc1 [Example 263, 4-{[5-(4-{4-[(benzyl{2-methyl-3-[(methylsulfonyl)amino]phenyl}amino)methyl]phenoxy}phenoxy)pentanoyl]amino}butanoic acid] | 91.7%
3 | Cc1c(NS(C)(=O)=O)cccc1N(Cc1ccccc1)Cc1ccc(Oc2ccc(OCCCCC(=O)N(C)CC(=O)O)cc2)cc1 [Example 264, N-[5-(4-{4-[(benzyl{2-methyl-3-[(methylsulfonyl)amino]phenyl}amino)methyl]phenoxy}phenoxy)pentanoyl]-N-methylglycine] | 89.5%
4 | Cc1c(NS(C)(=O)=O)cccc1N(Cc1ccccc1)Cc1ccc(Oc2ccc(OCCCCC(=O)N[C@@H](CCC(=O)O)C(=O)O)cc2)cc1 [Example 265, N-[5-(4-{4-[(benzyl{2-methyl-3-[(methylsulfonyl)amino]phenyl}amino)methyl]phenoxy}phenoxy)pentanoyl]-L-glutamic acid] | 90%
5 | Cc1c(NS(C)(=O)=O)cccc1N(Cc1ccccc1)Cc1ccc(Oc2ccc(OCCCCC(=O)N[C@H](C(=O)O)C(C)C)cc2)cc1 [Example 266, N-[5-(4-{4-[(benzyl{2-methyl-3-[(methylsulfonyl)amino]phenyl}amino)methyl]phenoxy}phenoxy)pentanoyl]-L-valine] | 90.7%
6 | Cc1c(NS(C)(=O)=O)cccc1N(Cc1ccccc1)Cc1ccc(Oc2ccc(OCCCCC(=O)N3CCC[C@H]3C(=O)O)cc2)cc1 [Example 267, 1-[5-(4-{4-[(benzyl{2-methyl-3-[(methylsulfonyl)amino]phenyl}amino)methyl]phenoxy}phenoxy)pentanoyl]-L-proline] | 92.2%
7 | Cc1c(NS(C)(=O)=O)cccc1N(Cc1ccccc1)Cc1ccc(Oc2ccc(OCCCCC(=O)NC3CCOC3=O)cc2)cc1 (stereo not shown) [Example 268, 5-(4-{4-[(benzyl{2-methyl-3-[(methylsulfonyl)amino]phenyl}amino)methyl]phenoxy}phenoxy)-N-(2-oxotetrahydrofuran-3-yl)pentanamide] | 90.8%
8 | Cc1c(NS(C)(=O)=O)cccc1N(Cc1ccccc1)Cc1ccc(Oc2ccc(OCCCCC(=O)N[C@@H](CO)C(=O)O)cc2)cc1 [Example 269, N-[5-(4-{4-[(benzyl{2-methyl-3-[(methylsulfonyl)amino]phenyl}amino)methyl]phenoxy}phenoxy)pentanoyl]-L-serine] | 90.7%
9 | CC[C@H](C)[C@H](NC(=O)CCCCOc1ccc(Oc2ccc(CN(Cc3ccccc3)c3cccc(NS(C)(=O)=O)c3C)cc2)cc1)C(=O)O [Example 270, N-[5-(4-{4-[(benzyl{2-methyl-3-[(methylsulfonyl)amino]phenyl}amino)methyl]phenoxy}phenoxy)pentanoyl]-L-isoleucine] | 91.1%
10 | Cc1c(NS(C)(=O)=O)cccc1N(Cc1ccccc1)Cc1ccc(Oc2ccc(OCC(=O)NCCCC(=O)O)cc2)cc1 [Example 271, 4-{[(4-{4-[(benzyl{2-methyl-3-[(methylsulfonyl)amino]phenyl}amino)methyl]phenoxy}phenoxy)acetyl]amino}butanoic acid] | 91%
11 | Cc1c(NS(C)(=O)=O)cccc1N(Cc1ccccc1)Cc1ccc(Oc2ccc(OCC(=O)N(C)CC(=O)O)cc2)cc1 [Example 272, N-[(4-{4-[(benzyl{2-methyl-3-[(methylsulfonyl)amino]phenyl}amino)methyl]phenoxy}phenoxy)acetyl]-N-methylglycine] | 90.2%
12 | Cc1c(NS(C)(=O)=O)cccc1N(Cc1ccccc1)Cc1ccc(Oc2ccc(OCC(=O)N[C@H](C(=O)O)C(C)C)cc2)cc1 [Example 273, N-[(4-{4-[(benzyl{2-methyl-3-[(methylsulfonyl)amino]phenyl}amino)methyl]phenoxy}phenoxy)acetyl]-L-valine] | 91.2%
13 | Cc1c(NS(C)(=O)=O)cccc1N(Cc1ccccc1)Cc1ccc(Oc2ccc(OCC(=O)NC3CCOC3=O)cc2)cc1 (stereo not shown) [Example 274, 2-(4-{4-[(benzyl{2-methyl-3-[(methylsulfonyl)amino]phenyl}amino)methyl]phenoxy}phenoxy)-N-(2-oxotetrahydrofuran-3-yl)acetamide] | 89.9%
14 | Cc1c(NS(C)(=O)=O)cccc1N(Cc1ccccc1)Cc1ccc(Oc2ccc(OCC(=O)N[C@@H](CO)C(=O)O)cc2)cc1 [Example 275, N-[(4-{4-[(benzyl{2-methyl-3-[(methylsulfonyl)amino]phenyl}amino)methyl]phenoxy}phenoxy)acetyl]-L-serine] | 90.5%
15 | Cc1c(NS(C)(=O)=O)cccc1N(Cc1ccccc1)Cc1ccc(Oc2ccc(OCC(=O)N[C@@H](CC(N)=O)C(=O)O)cc2)cc1 [Example 276, N˜2˜-[(4-{4-[(benzyl{2-methyl-3-[(methylsulfonyl)amino]phenyl}amino)methyl]phenoxy}phenoxy)acetyl]-L-asparagine] | 89.2%
16 | Cc1c(NS(C)(=O)=O)cccc1N(Cc1ccccc1)Cc1ccc(Oc2ccc(OCC(=O)NN)cc2)cc1 [Example 277, N-[3-(benzyl{4-[4-(2-hydrazino-2-oxoethoxy)phenoxy]benzyl}amino)-2-methylphenyl]methanesulfonamide] | 90.6%
17 | Cc1c(NS(C)(=O)=O)cccc1N(Cc1ccccc1)Cc1ccc(Oc2cccc(OC[C@@H]3CCC(=O)N3)c2)cc1 [Example 278, N-(3-{benzyl[4-(3-{[(2S)-5-oxopyrrolidin-2-yl]methoxy}phenoxy)benzyl]amino}-2-methylphenyl)methanesulfonamide] | 90.1%
18 | Cc1c(NS(C)(=O)=O)cccc1N(Cc1ccccc1)Cc1ccc(Oc2cccc(OCCCC(=O)N3CCCC(C(=O)O)C3)c2)cc1 (stereo not shown) [Example 279, 1-[4-(3-{4-[(benzyl{2-methyl-3-[(methylsulfonyl)amino]phenyl}amino)methyl]phenoxy}phenoxy)butanoyl]piperidine-3-carboxylic acid] | 91.7%
19 | Cc1c(NS(C)(=O)=O)cccc1N(Cc1ccccc1)Cc1ccc(Oc2cccc(OCCCC(=O)N3CCC(C(=O)O)CC3)c2)cc1 [Example 280, 1-[4-(3-{4-[(benzyl{2-methyl-3-[(methylsulfonyl)amino]phenyl}amino)methyl]phenoxy}phenoxy)butanoyl]piperidine-4-carboxylic acid] | 89.5%
20 | Cc1c(NS(C)(=O)=O)cccc1N(Cc1ccccc1)Cc1ccc(Oc2cccc(OCCCC(=O)N3CCCCC3C(=O)O)c2)cc1 (stereo not shown) [Example 281, 1-[4-(3-{4-[(benzyl{2-methyl-3-[(methylsulfonyl)amino]phenyl}amino)methyl]phenoxy}phenoxy)butanoyl]piperidine-2-carboxylic acid] | 90%
21 | Cc1c(NS(C)(=O)=O)cccc1N(Cc1ccccc1)Cc1ccc(Oc2cccc(OCCCC(=O)N3CCC[C@H]3C(=O)O)c2)cc1 [Example 282, 1-[4-(3-{4-[(benzyl{2-methyl-3-[(methylsulfonyl)amino]phenyl}amino)methyl]phenoxy}phenoxy)butanoyl]proline] | 89.9%
22 | Cc1c(NS(C)(=O)=O)cccc1N(Cc1ccccc1)Cc1ccc(Oc2cccc(OCC3(C)COC3)c2)cc1 [Example 283, N-{3-[benzyl(4-{3-[(3-methyloxetan-3-yl)methoxy]phenoxy}benzyl)amino]-2-methylphenyl}methanesulfonamide] | 89.7%
23 | Cc1c(NS(C)(=O)=O)cccc1N(Cc1ccccc1)Cc1ccc(Oc2cccc(OCC3CC3C(=O)O)c2)cc1 (stereo not shown) [Example 284, 2-[(3-{4-[(benzyl{2-methyl-3-[(methylsulfonyl)amino]phenyl}amino)methyl]phenoxy}phenoxy)methyl]cyclopropanecarboxylic acid] | 89.6%
24 | Cc1c(NS(C)(=O)=O)cccc1N(Cc1ccccc1)Cc1ccc(Oc2cccc(OC[C@H](O)CO)c2)cc1 [Example 285, N-(3-{benzyl[4-(3-{[(2R)-2,3-dihydroxypropyl]oxy}phenoxy)benzyl]amino}-2-methylphenyl)methanesulfonamide] | 89.7%
25 | Cc1c(NS(C)(=O)=O)cccc1N(Cc1ccccc1)Cc1ccc(Oc2cccc(OC3CCC(C(=O)O)CC3)c2)cc1 (stereo not shown) [Example 286, 4-(3-{4-[(benzyl{2-methyl-3-[(methylsulfonyl)amino]phenyl}amino)methyl]phenoxy}phenoxy)cyclohexanecarboxylic acid] | 92.6%
